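Five concentrations, 48 hours, 96-well plates. The concentration for 50% growth inhibition is given as GI50.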 The source made the active and inactive calls. No stated cut-off is given here; in the data, active = GI50 up to about 1.1 µM and inactive = higher.
Experiments:
Assay in all cases: growth of human tumour cells (NCI), 48 h
IGROV-1 = tested on: IGROV-1
SK-MEL-5 = tested on: SK-MEL-5
HOP-62 = tested on: HOP-62
COLO 205 = tested on: COLO 205
OVCAR-3 = tested on: OVCAR-3
786-0 = tested on: 786-0
UO-31 = tested on: UO-31
SNB-75 = tested on: SNB-75
NCI-H522 = tested on: NCI-H522
NCI-H226 = tested on: NCI-H226
T47D = tested on: T47D
MCF7 = tested on: MCF7
Malme-3M = tested on: Malme-3M
U-251 = tested on: U-251
UACC-257 = tested on: UACC-257
MDA-MB-435 = tested on: MDA-MB-435
HCT-116 = tested on: HCT-116
HCC 2998 = tested on: HCC 2998
KM12 = tested on: KM12
SK-MEL-2 = tested on: SK-MEL-2

SMILES	GI50 (IGROV-1)	GI50 (SK-MEL-5)	GI50 (HOP-62)	GI50 (COLO 205)	GI50 (OVCAR-3)	GI50 (786-0)	GI50 (UO-31)	GI50 (SNB-75)	GI50 (NCI-H522)	GI50 (NCI-H226)	GI50 (T47D)	GI50 (MCF7)	GI50 (Malme-3M)	GI50 (U-251)	GI50 (UACC-257)	GI50 (MDA-MB-435)	GI50 (HCT-116)	GI50 (HCC 2998)	GI50 (KM12)	GI50 (SK-MEL-2)
O=C(NCCCCCCNC(=O)c1cc(-c2ccccc2)nc2ccccc12)c1cc(-c2ccccc2)nc2ccccc12	34.8 µM (inactive)	> 100 µM (inactive)	54.3 µM (inactive)	> 100 µM (inactive)	> 100 µM (inactive)	31.6 µM (inactive)	> 100 µM (inactive)	33.3 µM (inactive)	> 100 µM (inactive)	> 100 µM (inactive)	> 100 µM (inactive)	> 100 µM (inactive)	> 100 µM (inactive)	88.3 µM (inactive)	> 100 µM (inactive)	> 100 µM (inactive)	> 100 µM (inactive)			
Cc1ccc(Nc2cn(COCc3ccccc3)c(=O)[nH]c2=O)cc1	45.6 µM (inactive)	> 100 µM (inactive)	29.4 µM (inactive)	> 100 µM (inactive)	> 100 µM (inactive)	43.5 µM (inactive)	> 100 µM (inactive)			> 100 µM (inactive)		> 100 µM (inactive)		> 100 µM (inactive)	> 100 µM (inactive)	> 100 µM (inactive)	> 100 µM (inactive)	> 100 µM (inactive)	> 100 µM (inactive)	
N#Cc1c(=O)c2ccccc2n2ccccc12	> 100 µM (inactive)	> 100 µM (inactive)		> 100 µM (inactive)		> 100 µM (inactive)	97.9 µM (inactive)	> 100 µM (inactive)	> 100 µM (inactive)	24.9 µM (inactive)	> 100 µM (inactive)		> 100 µM (inactive)	> 100 µM (inactive)	> 100 µM (inactive)	> 100 µM (inactive)	> 100 µM (inactive)	> 100 µM (inactive)	> 100 µM (inactive)	13.4 µM (inactive)
CCOC(=O)N1CCN(c2ccc3ccc(N)nc3n2)CC1	> 100 µM (inactive)		> 100 µM (inactive)	> 100 µM (inactive)	> 100 µM (inactive)	> 100 µM (inactive)	> 100 µM (inactive)	> 100 µM (inactive)	> 100 µM (inactive)	> 100 µM (inactive)		> 100 µM (inactive)	> 100 µM (inactive)	> 100 µM (inactive)	> 100 µM (inactive)	> 100 µM (inactive)	> 100 µM (inactive)	> 100 µM (inactive)	> 100 µM (inactive)	> 100 µM (inactive)
S=c1oc(CCCCCCCCc2nn(CNc3ccccc3)c(=S)o2)nn1CNc1ccccc1		> 100 µM (inactive)	> 100 µM (inactive)	> 100 µM (inactive)		> 100 µM (inactive)	> 100 µM (inactive)	> 100 µM (inactive)	> 100 µM (inactive)	> 100 µM (inactive)		> 100 µM (inactive)		> 100 µM (inactive)	> 100 µM (inactive)	> 100 µM (inactive)	> 100 µM (inactive)	> 100 µM (inactive)	> 100 µM (inactive)	> 100 µM (inactive)
Nn1c(CCCCCCCCc2nnc(COc3ccc(Cl)cc3)n2N)nnc1COc1ccc(Cl)cc1	> 100 µM (inactive)	> 100 µM (inactive)		> 100 µM (inactive)		> 100 µM (inactive)	25.4 µM (inactive)	> 100 µM (inactive)	81.1 µM (inactive)	> 100 µM (inactive)		> 100 µM (inactive)	> 100 µM (inactive)	> 100 µM (inactive)	> 100 µM (inactive)	> 100 µM (inactive)	74.5 µM (inactive)	> 100 µM (inactive)	> 100 µM (inactive)	> 100 µM (inactive)
CC(=O)[C@@H]1C/C(=C\OCc2ccccc2)O[C@H]1C	> 100 µM (inactive)	> 100 µM (inactive)	> 100 µM (inactive)	> 100 µM (inactive)	> 100 µM (inactive)	> 100 µM (inactive)	> 100 µM (inactive)	> 100 µM (inactive)	> 100 µM (inactive)	> 100 µM (inactive)	> 100 µM (inactive)		> 100 µM (inactive)	> 100 µM (inactive)	> 100 µM (inactive)	> 100 µM (inactive)	> 100 µM (inactive)		> 100 µM (inactive)	
Cc1ccc(-c2c(C#N)c(-c3ccccc3)n(NS(=O)(=O)c3ccc(C)cc3)c(=O)c2C#N)cc1	36.7 µM (inactive)	19.2 µM (inactive)	41.9 µM (inactive)	> 100 µM (inactive)		59.4 µM (inactive)		92.5 µM (inactive)	39.2 µM (inactive)	74.3 µM (inactive)		37 µM (inactive)	38.6 µM (inactive)	49.5 µM (inactive)	> 100 µM (inactive)	61.7 µM (inactive)	35.1 µM (inactive)	47.4 µM (inactive)	27.4 µM (inactive)	35.8 µM (inactive)
c1ccc2c(c1)nc1n2CCCn2ccnc2-1	> 100 µM (inactive)	87.3 µM (inactive)	> 100 µM (inactive)	> 100 µM (inactive)	> 100 µM (inactive)	> 100 µM (inactive)	99.3 µM (inactive)	> 100 µM (inactive)	> 100 µM (inactive)	68.7 µM (inactive)	57.3 µM (inactive)	> 100 µM (inactive)	> 100 µM (inactive)	> 100 µM (inactive)			> 100 µM (inactive)		> 100 µM (inactive)	> 100 µM (inactive)
Cc1ccc(Cl)c2c(=O)c3ccc(N)cc3sc12	10 µM (inactive)	17.5 µM (inactive)	19.7 µM (inactive)	16.6 µM (inactive)	20 µM (inactive)	24.9 µM (inactive)	13.9 µM (inactive)	13.6 µM (inactive)		17.3 µM (inactive)	18.9 µM (inactive)	15.7 µM (inactive)			25.8 µM (inactive)		16.9 µM (inactive)		14.7 µM (inactive)	20.1 µM (inactive)
Br/C(=N\N=c1/nn[nH][nH]1)c1ccncc1	> 100 µM (inactive)	> 100 µM (inactive)	> 100 µM (inactive)	> 100 µM (inactive)	> 100 µM (inactive)	> 100 µM (inactive)		> 100 µM (inactive)	> 100 µM (inactive)	> 100 µM (inactive)	> 100 µM (inactive)	> 100 µM (inactive)	> 100 µM (inactive)	> 100 µM (inactive)	> 100 µM (inactive)	> 100 µM (inactive)	> 100 µM (inactive)		> 100 µM (inactive)	> 100 µM (inactive)
Cc1cccc(-c2cc(O)c3cccnc3n2)c1	0.914 µM (active)	0.467 µM (active)	17.6 µM (inactive)	0.236 µM (active)	0.301 µM (active)	0.569 µM (active)	> 100 µM (inactive)	1.26 µM (inactive)	0.553 µM (active)	4.44 µM (inactive)		0.378 µM (active)		0.449 µM (active)		0.0298 µM (active)	0.385 µM (active)	1.98 µM (inactive)	0.173 µM (active)	
O=S(=O)(c1ccc(/N=N/O)nc1)c1ccc2ccccc2c1	54.8 µM (inactive)	36.8 µM (inactive)	> 100 µM (inactive)	97.3 µM (inactive)	> 100 µM (inactive)	> 100 µM (inactive)	23.1 µM (inactive)	22.1 µM (inactive)	> 100 µM (inactive)	> 100 µM (inactive)	40 µM (inactive)	> 100 µM (inactive)	26.5 µM (inactive)	> 100 µM (inactive)	> 100 µM (inactive)		> 100 µM (inactive)		> 100 µM (inactive)	> 100 µM (inactive)
O=C1C2=C(SCCS2)C(=O)c2ccccc21	1.77 µM (inactive)	1.69 µM (inactive)	1.56 µM (inactive)	1.61 µM (inactive)	1.71 µM (inactive)	1.74 µM (inactive)	1.93 µM (inactive)	1.67 µM (inactive)	1.76 µM (inactive)	2.08 µM (inactive)			1.81 µM (inactive)	1.64 µM (inactive)	1.95 µM (inactive)		1.67 µM (inactive)	1.65 µM (inactive)	1.77 µM (inactive)	1.99 µM (inactive)
O=C1CCCC2=C1CC1=C(CCCC1=O)N2c1cccc2ccccc12	> 100 µM (inactive)	85.3 µM (inactive)			> 100 µM (inactive)	57.1 µM (inactive)	> 100 µM (inactive)	29.1 µM (inactive)		> 100 µM (inactive)		41.1 µM (inactive)		61 µM (inactive)				> 100 µM (inactive)	> 100 µM (inactive)	
COC1OC(OC)C2C(c3c(C)cc(C)cc3C)=NOC12 (stereo unspecified)	> 100 µM (inactive)	> 100 µM (inactive)	2.13 µM (inactive)	> 100 µM (inactive)	> 100 µM (inactive)	> 100 µM (inactive)	> 100 µM (inactive)	> 100 µM (inactive)	> 100 µM (inactive)	> 100 µM (inactive)			> 100 µM (inactive)	20.3 µM (inactive)	> 100 µM (inactive)		> 100 µM (inactive)	> 100 µM (inactive)	> 100 µM (inactive)	> 100 µM (inactive)
COc1ccc2[nH]c(CCNC(=O)c3cc([N+](=O)[O-])cc([N+](=O)[O-])c3)cc2c1	26.5 µM (inactive)	> 100 µM (inactive)	12.3 µM (inactive)	> 100 µM (inactive)	> 100 µM (inactive)	21.2 µM (inactive)	> 100 µM (inactive)	19.4 µM (inactive)		71.1 µM (inactive)	29.9 µM (inactive)	69.3 µM (inactive)	> 100 µM (inactive)	14.7 µM (inactive)	> 100 µM (inactive)	> 100 µM (inactive)	> 100 µM (inactive)		> 100 µM (inactive)	65.8 µM (inactive)
